# Test results taken from PMC9775191, “A Subset Screen of the Compounds Australia Scaffold Library Identifies 7-Acylaminodibenzoxazepinones as Potent and Selective Hits for Anti-Giardia Drug Discovery” (Biomedicines, 2022).
# Tested on: G. duodenalis BRIS/91/HEPU/1279
# Assay: Primary Giardia screen at 10 µM (live-cell imaging, automated counting)
# Assay type: cell-based, Giardia duodenalis
# Conditions: 48 h, first singlicate assay
# How it was run: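 One concentration, 10 μM, is screened per compound in singlicate under microaerophilic gas (3% O2, 5% CO2, N2). Inhibition comes from automated image-based counts at 24 and 48 h, relative to 0.2% DMSO controls.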
row,SMILES,% Inhibition n=1 48h [%]
1,COCCN1CCCN(C(=O)C2CCCN(S(C)(=O)=O)C2)CC1 (centres unmarked) [SN00782901],15.1
2,Cc1ccc(NS(=O)(=O)c2ccc(-n3cccn3)cc2)cc1 [SN00794732],6.0
3,CSc1ccc(Cl)c(C(=O)N2CCCN(C(=O)c3ccncc3)CC2)c1 [SN00771952],45.6
4,Cc1c(C(=O)NCCCN2CCOCC2)oc2c1-c1nn(Cc3ccc(Cl)cc3)cc1CC2 [SN00787421],1.0
5,COc1ccccc1-c1nc(C2CCN(C(=O)COc3ccccc3)CC2)no1 [SN00796215],15.9
6,COc1cccc(Cn2nc3c(S(=O)(=O)N4CCOCC4)cccn3c2=O)c1 [SN00798018],4.9
7,Nc1cc(C2CCNCC2)[nH]n1 [SN00781241],7.2
8,Cn1nc2c(c1NC(=O)c1cccc(NC(=O)C(C)(C)C)c1)CCC2 [SN00777576],0.0
9,O=C(Nc1cccc(C(=O)N2CCC(N3CCCC3)C2)c1)c1ccco1 (centres unmarked) [SN00783226],0.0
10,CCc1noc2nc(C)nc(N3CCCC(C(=O)O)C3)c12 (centres unmarked) [SN00785300],0.0
11,Cn1c(C(=O)N2CCCC(C(=O)NCCc3ccccc3)C2)cc2sccc21 (centres unmarked) [SN00785483],4.8
12,Cc1ccc(NC(=O)c2nc3c(=O)n(Cc4ccccc4C)c4cc(C)ccc4n3n2)cc1 [SN00794983],3.1
13,Cc1nnc2sc(-c3ccc(CNC(=O)c4cccc(Br)c4)cc3)nn12 [SN00794033],41.7
14,CS(=O)(=O)N1CCCC1C(=O)OCc1cc(=O)n2c3c(sc2n1)CCCC3 (centres unmarked) [SN00775816],10.4
15,CSc1ccc(CNC(=O)c2cn3cc(C)ccc3n2)cc1 [SN00799926],26.2
16,CCCCOC(=O)c1ccc(NC(=O)c2cc3c(=O)n(C)c(=O)n(C)c3n2CCC)cc1 [SN00772629],16.7
17,CCCCn1c(=O)[nH]c2cc(-c3nc(-c4ccc(F)cc4)no3)ccc2c1=O [SN00789403],0.3
18,COC(=O)C(C)n1cnc2c(nnn2Cc2ccccc2F)c1=O (centres unmarked) [SN00802558],11.4
19,COc1ccc(CC(=O)NC2CCN(c3nc4c(s3)c(C)nn4-c3cccc(C)c3)CC2)cc1 [SN00803147],1.5

row,SMILES,% Inhibition n=1 48h [%]
1,Cc1ccccc1CS(=O)(=O)Cc1ccc(-c2nc(-c3ccc(Br)cc3)no2)o1 [SN00790667],0.0
2,Cn1cc(-c2cc3n(n2)CCC(=O)N3CC(=O)N2CCC3(CC2)OCCO3)c2ccccc21 [SN00792412],10.8
3,CN(C)CCCN1C(=O)C(O)=C(C(=O)c2cc(Cl)ccc2O)C1c1ccco1 (centres unmarked) [SN00776642],14.6
4,COc1ccc(CNC(=O)N2CCN(C)CC2c2ccccc2)cn1 (centres unmarked) [SN00782363],0.0
5,Cc1ccccc1-c1noc(Cn2c(-c3ccccn3)noc2=O)n1 [SN00781291],0.0
6,CCCOc1ccc(C2OCCn3c(-c4ccc(OC)cc4)c4c(=O)n(C)c(=O)n(C)c4c32)cc1 (centres unmarked) [SN00786016],14.8
7,COc1ccc(OC)c(CNC(=O)c2ccc(N3CCOc4ccccc43)s2)c1 [SN00791505],9.9
8,Cc1cc2n(n1)CCCN2CC(=O)N1CCN(c2cccc(Cl)c2)CC1 [SN00791744],5.3
9,O=C(Nc1cccc(-c2noc(C3CCOCC3)n2)c1)C1CC1 [SN00772921],0.0
10,Cc1sc2nc(CN3CCC(C)CC3)nc(N(C)Cc3nc4ccsc4c(=O)[nH]3)c2c1C [SN00775403],11.1
11,CCn1cc(CN2CCCN(C(=O)C(C)n3cncn3)CC2)cn1 (centres unmarked) [SN00782395],0.0
12,Cc1ccc(OCC(=O)NCC2(N3CCN(C)CC3)CCCCC2)cc1 [SN00786260],9.4
13,O=C(NCC1CCCO1)Nc1ccc2sc(NS(=O)(=O)c3ccccc3)nc2c1 (centres unmarked) [SN00797600],23.5
14,c1ccc(-c2cn3nc(-c4ccccc4)n4c3c2CCCC4)cc1 [SN00776412],0.0
15,O=C(C1CCN(S(=O)(=O)c2ccccc2)CC1)N1CC=C(c2ccccc2)CC1 [SN00769994],0.0
16,COc1ccc(CN2CCCN(C(=O)c3cn4ccc(C)cc4n3)CC2)cc1 [SN00771379],0.0
17,O=C(NCC1CC1)c1nnn(-c2ccccc2)c1-c1ccncc1 [SN00796358],0.0
18,Cc1csc(C2CCCCN2)n1 (centres unmarked) [SN00781548],6.1
19,CCCN(C(=O)c1cccc(NC(=O)[C@H]2[C@@H]3C[C@@H]4[C@H]2C(=O)O[C@@H]4C3)c1)c1ccccc1F (relative stereo) [SN00785932],2.8
